According to patent US20180092908A1, “SMALL MOLECULE OXIDIZERS OF PDI AND THEIR USE” (THE TRUSTEES OF COLUMBIA UNIVERSITY IN THE CITY OF NEW YORK, priority 2015, published 2018):

Columns and labels:
PC12 mHTT^Q103 cells = conditions: Hoffstrom et al., 2010; read-out: EC50, rescue of PC12 mHTT^Q103 cells (previously identified inhibitor); cited from earlier work
[1] = target: T1, recombinant catalytic a domain of human PDI A1 (PDIa) (Homo sapiens, UniProt P07237); experiment: Insulin aggregation assay (PDIa reductase activity); assay type: biochemical; conditions: compound 750 μM + PDIa 500 μM, diluted 100-fold
T1 construct: made in house; host or cells: Escherichia coli BL21-Gold (DE3)
T1 sequence (P07237 with tags, fused parts or gaps): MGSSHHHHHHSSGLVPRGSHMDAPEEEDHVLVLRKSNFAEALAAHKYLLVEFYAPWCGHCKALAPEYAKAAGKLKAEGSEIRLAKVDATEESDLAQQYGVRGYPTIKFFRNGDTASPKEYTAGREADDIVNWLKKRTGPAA

[2] = target: T1, recombinant catalytic a domain of human PDI A1 (PDIa); experiment: as above; assay type: biochemical; conditions: compound 750 μM
[3] = Mouse plasma stability assay; assay type: in vitro ADME; conditions: compound 1.0 μM
Procedure: Test compound (1 μM) was incubated at 37° C. for up to 120 minutes in mouse plasma. At 0, 15, 30, 60, and 120 minute intervals an 100 μL aliquot was taken and quenched with 200 μL acetonitrile (ACN) containing internal standard. Following completion of the experimentation, the samples were analyzed by LC-MS/MS. The half-life (t1/2) was calculated using the following equation: t1/2=0.693/k, where, k is the elimination rate constant of test compounds obtained by fitting the data to the equation: C=initial×exp (−k×t). Results were reported as peak area ratios of analyte to internal standard.
The microsome stability assay, plasma stability assay, and plasma protein binding assay were each performed by Alliance Pharma, Inc. (Malvern, Pa.).

COC(=O)C1(C)c2[nH]c3ccccc3c2CCN1C(=O)CCl (stereo not drawn) [16F16, reference compound]
EC50 (PC12 mHTT^Q103 cells): 1000 nM | PDI's enzymatic activity after dilution of pre-formed complex [1]: still inhibited | inhibition of PDI's reduction of insulin without dilution [2]: able to inhibit

CCOC(=O)[C@H](CCc1ccccc1)N[C@@H](C)C(=O)N1CCC[C@H]1C(=O)O [Enalapril, reference compound]
% Remaining after 2-hour incubation [3]: 4.3% | Elimination rate constant (k) [3]: 0.0201 | half-life at 1 μM ([3]; read-out: Half-life (t1/2) (converted)): 36 min
